Test results: paper PMC5218480 (PLoS ONE, 2017)

Tested on: MV-4-11 cells
Assay: Gene expression microarray analysis (Affymetrix PrimeView) and GSEA
Type: cell-based, human
Set-up: RFU PODN (11730768_x_at) / Fold change /veh PODN (11730768_x_at) / RFU LINC00158 (11744669_a_at) / Fold change /veh LINC00158 (11744669_a_at) / RFU DUSP10 (11751237_a_at) / Fold change /veh DUSP10 (11751237_a_at) / RFU ID3 (11757404_x_at) / Fold change /veh ID3 (11757404_x_at) / RFU PLEKHG5 (11737974_s_at) / Fold change /veh PLEKHG5 (11737974_s_at) / RFU LRRC4B (11730491_at) / Fold change /veh LRRC4B (11730491_at) / RFU GIMAP4 (11747438_a_at) / Fold change /veh GIMAP4 (11747438_a_at) / RFU KRT8 (11758183_x_at) / Fold change /veh KRT8 (11758183_x_at) / RFU CNN1 (11734310_a_at) / Fold change /veh CNN1 (11734310_a_at) / RFU VPS37D (11726825_at) / Fold change /veh VPS37D (11726825_at) / RFU C10orf10 (11716522_x_at) / Fold change /veh C10orf10 (11716522_x_at) / RFU KIR2DL2 /// KIR2DL4 /// KIR2DL5A /// KIR2DL5B /// KIR2DS1 /// KIR2DS2 /// KIR2DS3 /// KIR2DS4 /// KIR3DL3 /// KIR3DL3 /// KIR3DS1 (11738374_at) / Fold change /veh KIR2DL2 /// KIR2DL4 /// KIR2DL5A /// KIR2DL5B /// KIR2DS1 /// KIR2DS2 /// KIR2DS3 /// KIR2DS4 /// KIR3DL3 /// KIR3DL3 /// KIR3DS1 (11738374_at) / RFU C1QL1 (11718748_at) / Fold change /veh C1QL1 (11718748_at) / RFU TMPRSS4 (11747572_a_at) / Fold change /veh TMPRSS4 (11747572_a_at) / RFU HAMP (11756126_x_at) / Fold change /veh HAMP (11756126_x_at) / RFU RNFT2 (11725882_a_at) / Fold change /veh RNFT2 (11725882_a_at) / RFU NR4A2 (11747474_a_at) / Fold change /veh NR4A2 (11747474_a_at) / RFU ABCC12 (11746883_a_at) / Fold change /veh ABCC12 (11746883_a_at) / RFU TMEM136 (11760407_x_at) / Fold change /veh TMEM136 (11760407_x_at) / RFU CLDN22 /// WWC2 (11732394_at) / Fold change /veh CLDN22 /// WWC2 (11732394_at) / RFU HLA-DPB1 (11760878_x_at) / Fold change /veh HLA-DPB1 (11760878_x_at) / RFU SPINT1 (11716480_a_at) / Fold change /veh SPINT1 (11716480_a_at) / RFU GAP43 (11754022_s_at) / Fold change /veh GAP43 (11754022_s_at) / RFU A4GNT (11735810_at) / Fold change /veh A4GNT (11735810_at) / RFU PRB3 (11715151_x_at) / Fold change /veh PRB3 (11715151_x_at) / RFU TUBB4B (11761932_at) / Fold change /veh TUBB4B (11761932_at) / RFU CAPN14 (11732068_a_at) / Fold change /veh CAPN14 (11732068_a_at) / RFU TMCC2 (11721928_a_at) / Fold change /veh TMCC2 (11721928_a_at) / RFU IRGQ (11745062_a_at) / Fold change /veh IRGQ (11745062_a_at) / RFU FAM174B (11720279_a_at) / Fold change /veh FAM174B (11720279_a_at) / RFU TMPRSS4 (11748680_a_at) / Fold change /veh TMPRSS4 (11748680_a_at) / RFU FAM212B (11763350_a_at) / Fold change /veh FAM212B (11763350_a_at) / RFU PLEKHG5 (11743358_a_at) / Fold change /veh PLEKHG5 (11743358_a_at) / RFU ZSCAN30 (11745921_a_at) / Fold change /veh ZSCAN30 (11745921_a_at) / RFU CMKLR1 (11741424_a_at) / Fold change /veh CMKLR1 (11741424_a_at) / RFU LOC101060620 /// MAPK8IP1 (11723275_at) / Fold change /veh LOC101060620 /// MAPK8IP1 (11723275_at) / RFU SPTSSB (11747773_x_at) / Fold change /veh SPTSSB (11747773_x_at) / RFU PRSS12 (11739890_at) / Fold change /veh PRSS12 (11739890_at) / RFU BIN1 (11741810_x_at) / Fold change /veh BIN1 (11741810_x_at) / RFU WNT11 (11732464_a_at) / Fold change /veh WNT11 (11732464_a_at) / RFU C10orf10 (11716521_a_at) / Fold change /veh C10orf10 (11716521_a_at) / RFU C5orf56 (11738089_at) / Fold change /veh C5orf56 (11738089_at) / RFU CYB561 (11721691_x_at) / Fold change /veh CYB561 (11721691_x_at) / RFU ANKRD19P (11752326_a_at) / Fold change /veh ANKRD19P (11752326_a_at) / RFU OR2T12 /// OR2T33 /// OR2T8 (11738714_s_at) / Fold change /veh OR2T12 /// OR2T33 /// OR2T8 (11738714_s_at) / RFU VCAN (11748164_a_at) / Fold change /veh VCAN (11748164_a_at) / RFU JSRP1 (11732532_at) / Fold change /veh JSRP1 (11732532_at) / RFU KRTAP10-11 (11738290_x_at) / Fold change /veh KRTAP10-11 (11738290_x_at) / RFU MYO3A (11730013_a_at) / Fold change /veh MYO3A (11730013_a_at) / RFU EBF3 (11725865_a_at) / Fold change /veh EBF3 (11725865_a_at) / RFU CAMK2N1 (11719241_x_at) / Fold change /veh CAMK2N1 (11719241_x_at) / RFU C5orf56 (11738088_a_at) / Fold change /veh C5orf56 (11738088_a_at) / RFU OLFML3 (11715873_a_at) / Fold change /veh OLFML3 (11715873_a_at) / RFU LOC100653217 /// NTM (11731650_a_at) / Fold change /veh LOC100653217 /// NTM (11731650_a_at) / RFU MAPK11 (11762145_a_at) / Fold change /veh MAPK11 (11762145_a_at) / RFU FIZ1 (11724087_x_at) / Fold change /veh FIZ1 (11724087_x_at) / RFU OASL (11726364_x_at) / Fold change /veh OASL (11726364_x_at) / RFU SOX15 (11748057_x_at) / Fold change /veh SOX15 (11748057_x_at) / RFU CD79A (11719716_a_at) / Fold change /veh CD79A (11719716_a_at) / RFU HIST1H1D (11736915_at) / Fold change /veh HIST1H1D (11736915_at) / RFU CASKIN2 (11723855_a_at) / Fold change /veh CASKIN2 (11723855_a_at) / RFU LOC730098 (11760151_x_at) / Fold change /veh LOC730098 (11760151_x_at) / RFU OR4N2 (11742367_at) / Fold change /veh OR4N2 (11742367_at) / RFU PRRT2 (11749266_a_at) / Fold change /veh PRRT2 (11749266_a_at) / RFU SNX32 (11753110_a_at) / Fold change /veh SNX32 (11753110_a_at) / RFU CDHR5 (11726645_a_at) / Fold change /veh CDHR5 (11726645_a_at) / RFU RCAN1 (11760418_a_at) / Fold change /veh RCAN1 (11760418_a_at) / RFU FAM167A (11723789_a_at) / Fold change /veh FAM167A (11723789_a_at) / RFU FAM26E (11764081_at) / Fold change /veh FAM26E (11764081_at) / RFU ISYNA1 (11749810_s_at) / Fold change /veh ISYNA1 (11749810_s_at) / RFU ACY1 (11761880_at) / Fold change /veh ACY1 (11761880_at) / RFU 11764098_at / Fold change /veh 11764098_at / RFU SAMD14 (11745864_x_at) / Fold change /veh SAMD14 (11745864_x_at) / RFU NPB (11741838_a_at) / Fold change /veh NPB (11741838_a_at) / RFU TMPRSS6 (11731388_a_at) / Fold change /veh TMPRSS6 (11731388_a_at) / RFU KRTAP10-2 (11738614_at) / Fold change /veh KRTAP10-2 (11738614_at) / RFU ARHGAP8 /// PRR5-ARHGAP8 (11727945_x_at) / Fold change /veh ARHGAP8 /// PRR5-ARHGAP8 (11727945_x_at) / RFU KRTAP5-7 /// NADSYN1 (11734609_at) / Fold change /veh KRTAP5-7 /// NADSYN1 (11734609_at) / RFU RASL12 (11751679_a_at) / Fold change /veh RASL12 (11751679_a_at) / RFU CDKN2B (11736163_a_at) / Fold change /veh CDKN2B (11736163_a_at) / RFU PRF1 (11729649_at) / Fold change /veh PRF1 (11729649_at) / RFU, ZNF638 /// ZNF638-IT1 / Fold change vs veh, ZNF638 /// ZNF638-IT1 / RFU, PANK3 / Fold change vs veh, PANK3 / RFU, SH3YL1 / Fold change vs veh, SH3YL1 / RFU, ZEB2 / Fold change vs veh, ZEB2 / RFU, NRIP1 / Fold change vs veh, NRIP1 / RFU, PTTG1IP / Fold change vs veh, PTTG1IP / RFU, CAPN2 / Fold change vs veh, CAPN2 / RFU, MED14 / Fold change vs veh, MED14 / RFU, SNORA58 / Fold change vs veh, SNORA58 / RFU, C1orf63 / Fold change vs veh, C1orf63 / RFU, LRRFIP1 / Fold change vs veh, LRRFIP1 / RFU, NDUFAF7 / Fold change vs veh, NDUFAF7 / RFU, SLC12A2 / Fold change vs veh, SLC12A2 / RFU, IBTK / Fold change vs veh, IBTK / RFU, ESF1 / Fold change vs veh, ESF1 / Fold change vs veh, TMEM50B / RFU, TAOK1 / Fold change vs veh, TAOK1 / RFU, ACBD3 / Fold change vs veh, ACBD3 / RFU, TMA16 / Fold change vs veh, TMA16 / RFU, RWDD3 / Fold change vs veh, RWDD3 / RFU, BCAT1 / Fold change vs veh, BCAT1 / RFU, EDEM3 / Fold change vs veh, EDEM3 / RFU, TMEM33 / Fold change vs veh, TMEM33 / RFU, WDR75 / Fold change vs veh, WDR75 / RFU, AHCTF1 / Fold change vs veh, AHCTF1 / RFU, TFRC / Fold change vs veh, TFRC / RFU, ZDHHC17 / Fold change vs veh, ZDHHC17 / RFU, NOM1 / Fold change vs veh, NOM1 / RFU, ARL8B / Fold change vs veh, ARL8B / RFU, ZBTB11 / Fold change vs veh, ZBTB11 / RFU, TAMM41 / Fold change vs veh, TAMM41 / RFU, KIAA1704 /// LOC100996395 / Fold change vs veh, KIAA1704 /// LOC100996395 / RFU, ING1 / Fold change vs veh, ING1 / RFU, TRMT61B / Fold change vs veh, TRMT61B / RFU, FUBP3 / Fold change vs veh, FUBP3 / RFU, TP53 / Fold change vs veh, TP53 / RFU, TNKS2 / Fold change vs veh, TNKS2 / RFU, ZFP14 / Fold change vs veh, ZFP14 / RFU, ACTR2 / Fold change vs veh, ACTR2 / RFU, PPP3R1 / Fold change vs veh, PPP3R1 / RFU, PIK3R1 / Fold change vs veh, PIK3R1 / RFU, HNRNPA1 / Fold change vs veh, HNRNPA1 / RFU, RNF170 / Fold change vs veh, RNF170 / RFU, ZNF28 / Fold change vs veh, ZNF28 / RFU, RNGTT / Fold change vs veh, RNGTT / RFU, OGT / Fold change vs veh, OGT / RFU, BRD1 / Fold change vs veh, BRD1 / RFU, MARS / Fold change vs veh, MARS / RFU, ZNF655 / Fold change vs veh, ZNF655 / RFU, FAHD1 / Fold change vs veh, FAHD1 / RFU, BDP1 / Fold change vs veh, BDP1 / RFU, LRRCC1 / Fold change vs veh, LRRCC1 / RFU, ARID1A / Fold change vs veh, ARID1A / RFU, ZNF146 / Fold change vs veh, ZNF146 / RFU, ZNF330 / Fold change vs veh, ZNF330 / RFU, GPN3 / Fold change vs veh, GPN3 / RFU, C9orf123 / Fold change vs veh, C9orf123 / RFU, N4BP2L2 / Fold change vs veh, N4BP2L2 / RFU, ARFIP1 / Fold change vs veh, ARFIP1 / RFU, FAM179B / Fold change vs veh, FAM179B / RFU, BCL10 / Fold change vs veh, BCL10 / RFU, UHRF1BP1L / Fold change vs veh, UHRF1BP1L / RFU, BET1 / Fold change vs veh, BET1 / RFU, CNOT2 / Fold change vs veh, CNOT2 / RFU, ZNF268 / Fold change vs veh, ZNF268 / Fold change vs veh, ZNF507 / RFU, DGCR2 / Fold change vs veh, DGCR2 / RFU, WDSUB1 / Fold change vs veh, WDSUB1 / Fold change vs veh, HSP90B1 /// MIR3652 / RFU, ADSS / Fold change vs veh, ADSS / RFU, GK / Fold change vs veh, GK / RFU, ZNF148 / Fold change vs veh, ZNF148 / RFU, TAF9 / Fold change vs veh, TAF9 / RFU, SLC1A5 / Fold change vs veh, SLC1A5 / RFU, SLMO2 / Fold change vs veh, SLMO2 / RFU, ABCC4 / Fold change vs veh, ABCC4 / RFU, LOC101060439 /// RAP1B / Fold change vs veh, LOC101060439 /// RAP1B / RFU, RFX7 / Fold change vs veh, RFX7 / RFU, GTPBP10 / Fold change vs veh, GTPBP10 / RFU, CNEP1R1 / Fold change vs veh, CNEP1R1 / RFU, BIVM-ERCC5 /// ERCC5 / Fold change vs veh, BIVM-ERCC5 /// ERCC5 / RFU, ILF3 / Fold change vs veh, ILF3 / RFU 11762660_at / Fold change /veh 11762660_at / RFU VCAN (11757783_s_at) / Fold change /veh VCAN (11757783_s_at) / RFU DDX43 (11728927_at) / Fold change /veh DDX43 (11728927_at) / RFU KRT8 (11758188_x_at) / Fold change /veh KRT8 (11758188_x_at) / RFU NKD1 (11759106_at) / Fold change /veh NKD1 (11759106_at) / RFU SRD5A1 (11742802_a_at) / Fold change /veh SRD5A1 (11742802_a_at) / RFU TPSAB1 /// TPSB2 (11721975_s_at) / Fold change /veh TPSAB1 /// TPSB2 (11721975_s_at) / RFU GSTM3 (11746129_a_at) / Fold change /veh GSTM3 (11746129_a_at) / RFU IL23R (11737362_x_at) / Fold change /veh IL23R (11737362_x_at) / RFU TMEM51 (11727254_a_at) / Fold change /veh TMEM51 (11727254_a_at) / RFU PIWIL2 (11732686_x_at) / Fold change /veh PIWIL2 (11732686_x_at) / RFU ORM1 (11744905_x_at) / Fold change /veh ORM1 (11744905_x_at) / RFU CCDC152 (11743942_at) / Fold change /veh CCDC152 (11743942_at) / RFU ECM1 (11717891_a_at) / Fold change /veh ECM1 (11717891_a_at) / RFU IL23R (11748794_a_at) / Fold change /veh IL23R (11748794_a_at) / RFU TNFAIP8L3 (11732012_x_at) / Fold change /veh TNFAIP8L3 (11732012_x_at) / RFU MBOAT4 (11741988_at) / Fold change /veh MBOAT4 (11741988_at) / RFU 11764193_at / Fold change /veh 11764193_at / RFU TMEM53 (11763286_at) / Fold change /veh TMEM53 (11763286_at) / RFU MAGEB2 (11727129_at) / Fold change /veh MAGEB2 (11727129_at) / RFU TMEM200A (11744735_a_at) / Fold change /veh TMEM200A (11744735_a_at) / RFU CCDC152 (11751479_a_at) / Fold change /veh CCDC152 (11751479_a_at) / RFU FAM211A (11726209_a_at) / Fold change /veh FAM211A (11726209_a_at) / RFU RGS16 (11746705_a_at) / Fold change /veh RGS16 (11746705_a_at) / RFU VCAN (11755009_s_at) / Fold change /veh VCAN (11755009_s_at) / RFU RHOB (11743442_s_at) / Fold change /veh RHOB (11743442_s_at) / RFU RGS16 (11720943_a_at) / Fold change /veh RGS16 (11720943_a_at) / RFU RGS16 (11720944_at) / Fold change /veh RGS16 (11720944_at) / RFU, VPS4B / Fold change vs veh, VPS4B / RFU, CREB1 / Fold change vs veh, CREB1 / RFU, DNAJC13 / Fold change vs veh, DNAJC13 / RFU, GNAQ / Fold change vs veh, GNAQ / RFU, CDK5R1 / Fold change vs veh, CDK5R1 / RFU, ZRANB3 / Fold change vs veh, ZRANB3 / RFU, CUL4A / Fold change vs veh, CUL4A / RFU, CCNY / Fold change vs veh, CCNY / RFU, UFL1 / Fold change vs veh, UFL1 / RFU, COG3 / Fold change vs veh, COG3 / RFU, DIAPH2 / Fold change vs veh, DIAPH2 / RFU, SKA2 / Fold change vs veh, SKA2 / RFU, AFF3 / Fold change vs veh, AFF3 / RFU, LMF1 / Fold change vs veh, LMF1 / RFU, IPO11 / Fold change vs veh, IPO11 / RFU, DFFB / Fold change vs veh, DFFB / RFU, FOXP1 / Fold change vs veh, FOXP1 / RFU, CARD8 / Fold change vs veh, CARD8 / RFU, STRN3 / Fold change vs veh, STRN3 / RFU, ADK / Fold change vs veh, ADK / RFU, RASSF2 / Fold change vs veh, RASSF2 / RFU, WIPF1 / Fold change vs veh, WIPF1 / RFU, LARP1B / Fold change vs veh, LARP1B / RFU, RASA1 / Fold change vs veh, RASA1 / RFU, RB1 / Fold change vs veh, RB1 / RFU, PPFIA1 / Fold change vs veh, PPFIA1 / RFU, MAT2A / Fold change vs veh, MAT2A / RFU, CCT5 / Fold change vs veh, CCT5 / RFU, WDR92 / Fold change vs veh, WDR92 / RFU, CUX1 / Fold change vs veh, CUX1 / RFU, TTC7A / Fold change vs veh, TTC7A / RFU, TMEM135 / Fold change vs veh, TMEM135 / RFU, DEPTOR / Fold change vs veh, DEPTOR / RFU, CPM / Fold change vs veh, CPM / RFU, DNAJB6 / Fold change vs veh, DNAJB6 / RFU, CACNA2D3 / Fold change vs veh, CACNA2D3 / RFU, DTX4 / Fold change vs veh, DTX4 / RFU, TFCP2 / Fold change vs veh, TFCP2 / RFU, GMCL1 /// GMCL1P1 / Fold change vs veh, GMCL1 /// GMCL1P1 / RFU, AEBP2 / Fold change vs veh, AEBP2 / RFU, SNHG1 /// SNORD22 /// SNORD25 /// SNORD26 /// SNORD27 /// SNORD28 /// SNORD29 /// SNORD31 / Fold change vs veh, SNHG1 /// SNORD22 /// SNORD25 /// SNORD26 /// SNORD27 /// SNORD28 /// SNORD29 /// SNORD31 / Fold change (Aza/veh), C12orf56 (ProbeSet 11735607_a_at) / Fold change (ACY-1035/veh), C12orf56 (ProbeSet 11735607_a_at) / Fold change (Aza/veh), FGFR1OP (ProbeSet 11751329_s_at) / Fold change (ACY-1035/veh), FGFR1OP (ProbeSet 11751329_s_at) / Fold change (Aza/veh), VPS36 (ProbeSet 11739960_a_at) / Fold change (ACY-1035/veh), VPS36 (ProbeSet 11739960_a_at) / RFU SYPL1 (11715823_x_at) / Fold change /veh SYPL1 (11715823_x_at) / RFU IGFBP7 (11715501_s_at) / Fold change /veh IGFBP7 (11715501_s_at) / RFU REEP3 (11722064_at) / Fold change /veh REEP3 (11722064_at) / RFU IGLL1 (11728026_x_at) / Fold change /veh IGLL1 (11728026_x_at): dose or concentration left out as unconfirmed
Conditions: ProbeSet 11749781_s_at; LIST B

Nc1ncn([C@@H]2O[C@H](CO)[C@@H](O)[C@H]2O)c(=O)n1 [azacitidine]
RFU, BCAT1: 11.21 RFU
